US20050222076A1, “Composition for cell proliferation” (OTSUKA PHARMACEUTICAL CO., LTD., priority 2002, published 2005)

Tested on: human keratinocyte
Experiment: In vitro cultured human keratinocyte cell proliferation promoting effect (WST-1)
Format: cell-based
Conditions: primary-cultured human keratinocyte, cultured two days; AMP 0-1 w/v % combined with UMP 0.000001-0.1 w/v %; versus comparative sample without uridine monophosphate disodium set as 1; FIG. 1
Protocol: Primary-cultured human keratinocyte (manufactured by Kurabo Industries, Ltd.) was cultured in a 10-cm petri dish, and the cultured cells were collected in the subconfluent state and then stored in a frozen state. The following experiments were conducted using those cryopreserved cells.
1. The cryopreserved cells were dissolved in HuMediaKG2 liquid culture media (manufactured by Kurabo Industries, Ltd.), the cell concentration was adjusted to […]. 50 μl of thus obtained cells-containing solution was poured into each well of a test plate to adjust the cell concentration to 2500 cells/50 μl/well.
2. […]
3. […] The test samples contained solutions at various concentrations prepared by blending uridine monophosphate disodium to adenosine monophosphate disodium solutions in which the concentration of adenosine monophosphate contained in the 300 μl of the test sample was adjusted to 0, 0.0001, 0.001, 0.01, 0.1, and 1 W/V %, so that the concentration of uridine monophosphate disodium was adjusted to 0, 0.000001 (1E-06), 0.00001 (1E-05), 0.0001, 0.001, 0.01 and 0.1 w/v % as calculated based on the concentration of the uridine monophosphate.
4. Two days after culture initiation, the proliferation of human keratinocyte cells was measured using a WST-1 reagent (manufactured by TaKaRa) based on the rise in absorbance. […]

Compound: Nc1ncnc2c1ncn2[C@@H]1O[C@H](COP(=O)([O-])[O-])[C@@H](O)[C@H]1O.[Na+].[Na+] [adenosine monophosphate disodium]
- cell proliferation promoting effect of adenosine monophosphate disodium when blended with uridine monophosphate disodium (relative ratio of number of cells, ratio of cont.): potentiated and promoted

Compound: O=c1ccn([C@@H]2O[C@H](COP(=O)([O-])[O-])[C@@H](O)[C@H]2O)c(=O)[nH]1.[Na+].[Na+] [uridine monophosphate disodium]
- cell proliferation promoting effect of adenosine monophosphate disodium when blended with uridine monophosphate disodium (relative ratio of number of cells, ratio of cont.): potentiated and promoted
